Results on 21 compounds are retold here after PubChem BioAssay (NCI).

Structures are written as SMILES.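 Cells were grown in 96-well plates and exposed to each compound for 48 hours at five concentrations; endpoints were interpolated linearly between bracketing concentrations, or set to the highest concentration if not reached. GI50 = concentration required for 50% inhibition of growth. At the TGI there is no net growth.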

Assay in all cases: NCI anticancer screen, dose series, 48 h
In assay [1] the test system is DMS 273 small cell lung.
The subject of assay [2] is KM20L2 colon.
Assay [3] relates to DLD-1 colon.
The subject of assay [4] is LXFL 529 NSCLC.
Assay [5] concerns XF 498 CNS.
Assay [6] has as its system HOP-18 NSCLC.
The subject of assay [7] is PC-3 prostate.
Assay [8] concerns DU-145 prostate.
For assay [9], the system named is MDA-MB-435.
Assay [10] concerns MDA-MB-231 breast.

For the compound `CC(O)c1ccc(C(O)/C(=N\NC(=O)c2ccncc2)c2nc3ccc([N+](=O)[O-])cc3[nH]c2=O)cc1` (centres undefined), the TGI in assay [1], in assay [2], in [3], in assay [4] and in assay [5] was above 100 µM each time.
As for `C/C(CC(=O)Nc1cccc(C)c1C)=N\NC(N)=S`, the TGI in assay [6], in assay [1], in assay [2], in assay [3], in assay [4] and in [5] was above 100 µM each time.
For the compound `O=[P+](O)c1cccnc1`, the TGI in assay [1], in [2], in assay [3], in assay [4] and in assay [5] was above 100 µM throughout.
As to `C1=CC(=NN=P(c2ccccc2)(c2ccccc2)c2ccccc2)C=C1`, the TGI in assay [1], in assay [2], in assay [3], in assay [4] and in assay [5] was above 100 µM throughout.
For the compound `COC(=O)Cc1nn2c(nc1=O)sc1ccc3ccccc3c12`, the TGI in [6], in [2], in assay [3] and in assay [4] was above 100 µM throughout.
In the case of `Cc1cc(C)c(C(=O)/C(=C/c2ccccc2)c2ccccc2)c(C)c1`, the TGI in assay [6], in [2], in assay [3], in assay [4] and in assay [5] was above 100 µM throughout.
For `Cc1ccc(S(=O)(=O)OC2CSSCC2OS(=O)(=O)c2ccc(C)cc2)cc1` (centres undefined), the TGI in assay [6] came to 31.1 µM; in assay [1] it was 21.8 µM; in assay [2] it was 30.4 µM; in [3], 24.7 µM; in [4] it was 23.6 µM.
In the case of `Cc1cc2c(C)nn(Cc3ccccc3Cl)c2c(C#N)c1C`, the TGI in [6], in assay [1], in assay [2], in [3], in assay [4] and in [5] was above 100 µM each time.
As to `CCOC(=O)Cn1c(=O)[nH]c(=O)c2[nH]cnc21`, the TGI in assay [6], in assay [1], in [2], in [3] and in assay [4] was above 100 µM each time.
Turning to `O=C1NC(Cc2ccccc2)C(=O)N2CCCC12` (centres undefined), the TGI in assay [6], in [1], in assay [2], in assay [3], in assay [4] and in [5] was above 100 µM throughout.
On to `COc1cc([C@@H]2c3cc4c(cc3[C@@H](NC(=O)c3ccc(OC(C)=O)cc3)C3COC(=O)[C@@H]32)OCO4)cc(OC)c1O` (some centres undefined), for which the TGI was above 100 µM in assay [6]; 12.4 µM in [1]; 12.7 µM in assay [2]; 26 µM in assay [3]; 44.2 µM in [4]; 6.96 µM in [5].
Take `O=C(CC1(O)C(=O)Nc2ccc([N+](=O)[O-])cc21)c1ccc(Br)cc1` (centres undefined): the TGI in [6], in assay [2], in assay [3], in assay [4] and in assay [5] was above 100 µM each time.
For the compound `COc1ccc(NC(=O)C2=CC(=O)c3ccc(O)cc3C2=O)c(OC)c1`, the TGI in [6], in assay [2], in assay [3], in assay [4] and in assay [5] was above 100 µM in each case.
For the compound `O=C(Nc1nc(-c2ccccc2Cl)cs1)c1cc(-c2ccc(Cl)cc2)nc2ccc(Cl)cc12`, the GI50 in [7] is 3.25 µM; in assay [8], 4.24 µM; in assay [9] it was 1.71 µM; in assay [10], 2.27 µM. The TGI was 34.5 µM in assay [7], above 100 µM in assay [8], 4.72 µM in [9] and 15.2 µM in assay [10].
Turning to `C/C(CC(=O)Nc1ccc([N+](=O)[O-])cc1)=N\Nc1ccc([N+](=O)[O-])cc1[N+](=O)[O-]`, the TGI in [1], in assay [2], in [3], in [4] and in [5] was above 100 µM each time.
For the compound `CS(=O)(=O)c1ccc(-c2cnc(NCc3ccco3)n3cnnc23)cc1`, the GI50 in [7] is 57.8 µM; in assay [8], above 100 µM; in assay [9], 54.5 µM; in assay [10], 41.4 µM. Besides, the TGI in assay [7], in [8], in [9] and in [10] was above 100 µM in each case.
In the case of `O=C(O)CCCc1cc2c(s1)-c1cccc3cccc-2c13`, the TGI in assay [1], in [2], in [3], in assay [4] and in assay [5] was above 100 µM each time.
Regarding `CN(CCCCN)c1ccc2c(=O)[nH][nH]c(=O)c2c1`, the TGI in [6], in [1], in [3], in assay [4] and in assay [5] was above 100 µM each time.
Take `Cc1nc2cc(Nc3nc(Nc4ccc(F)cc4)nc(N4CCCC4)n3)ccc2n1Cc1ccccc1`: the GI50 in assay [7] was 1.77 µM; in assay [8], 1.87 µM; in [9], 1.62 µM; in assay [10] it was 1.78 µM. Further, the TGI in assay [7] turned out to be 4.29 µM; in [8] it was 3.35 µM; in assay [9], 3.09 µM; in [10] it was 3.27 µM.
In the case of `C1C[S][Ge]2([S]CCS1)[S]CCSCC[S]2`, the GI50 in [1], in [3] and in assay [4] was above 100 µM each time. In addition, the TGI in [1], in [3] and in [4] was above 100 µM throughout.
With `COc1cc(=O)oc(/C=C/CO)c1C`, the TGI in assay [6], in [1], in assay [2], in assay [3], in assay [4] and in assay [5] was above 100 µM each time.
